{"source": "paper PMC3961230", "about": "“Theoretical and Experimental Studies of New Modified Isoflavonoids as Potential Inhibitors of Topoisomerase I from Plasmodium falciparum” (PLoS ONE, 2014)", "key": {"[1]": {"system": "normal kidney glomerular cells from green monkey (BGM)", "assay": "Cytotoxicity test (MTT) against BGM cells", "format": "cell-based", "conditions": "for MDL50 (µg/mL) Mean ± SD: 24 h", "protocol": "The cytotoxicity tests were performed against normal kidney glomerular cells from green monkey (BGM) as follows. The cells were cultured under a 5% CO2 atmosphere, at 37°C, in 75 cm^2 sterile flasks in RPMI 1640 medium supplemented with 10% heat-inactivated fetal calf serum, and 40 mg/L gentamicin. When confluent, the cell monolayer was washed with culture medium, trypsinized, distributed in flat-bottomed 96-well plates (5×10^3 cells/well), and incubated for 18 h at 37°C for cell adherence. The compounds (20 µL) were added to the cell plates, at various concentrations (1000 to1 µg/mL), incubated for 24 h, then received a solution of MTT [3-(4,5-dimethylthiazol-2-yl)-2,5-diphenyltetrazolium bromide] (5 mg/mL; 20 µL/well), followed by another 3 h incubation, to evaluate mitochondrial viability. The supernatants were removed, DMSO added to each well (100 µL), carefully mixed to solubilize the formazan crystals. The optical density was determined at 570 and 630 nm (background) (SpectraMax340PC384, Molecular Devices). Cell viability was expressed as the percentage of the control absorbance in the untreated cells after subtracting the appropriate background. The minimum lethal dose for 50% of the cells (MLD50) was determined and the selectivity index (SI) calculated as the ratio between cytotoxicity and activity."}, "[2]": {"system": "P. falciparum CQ-resistant (W2 clone)", "assay": "anti-HRPII test, P. falciparum blood parasites, CQ-resistant W2 clone", "format": "cell-based", "conditions": "Plasmodium falciparum", "from_the_text": "(§1) A CQ-resistant and mefloquine-sensitive P. falciparum, clone W2 [27] and a CQ-sensitive strain 3D7, were cultivated as described, in human erythrocytes (A^+), in complete medium (RPMI 1640 supplemented with 10% human sera blood group A^+) and tests followed a protocol slightly modified as follows. Human erythrocytes (A^+) and serum blood group A^+ were kindly donated by Center of Hemotherapy and Hemathology of Minas Gerais (HEMOMINAS - http://www.hemominas.mg.gov.br), under the mutual cooperation term number 18/09.\n(§2) The ring-stage parasites sorbitol-synchronized were adjusted for parasitemia and hematocrit, according to the specifications for the test, then distributed in 96-well microtiter plates (Corning, Santa Clara, CA, EUA), previously prepared and containing the diluted compounds in dimethyl sulfoxide (DMSO) (0.02%) aqueous stock solution, in triplicates for each dose. CQ, the standard antimalarial, was tested in parallel each time. The drug activity was determined in relation to parasite cultures in complete medium and no drugs, as described. Parasite growth was measured through the anti-HRPII test in cultures adjusted to 1.5% hematocrit and 0.05% parasitemia, with monoclonal antibodies (MPFM-55A and MPFG-55P) commercially acquired (ICLLAB®, USA) and the TMB chromogen (3,3′,5,5′-Tetramethylbenzidine) from KPL (Gaithersburg, MD, EUA). The reaction was stopped with […] of 1 M sulfuric acid, absorbance read at 450 nm in a spectrophotometer (SpectraMax340PC384, Molecular Devices). Sigmoid dose-response curves were generated with curve-fitting software (Microcal Origin Software 5.0, Inc.), used to determine the 50% inhibitory concentration of the parasite growth (IC50), and activity calculated by comparing growth in drug-exposed cultures and the drug-free control cultures."}, "[3]": {"system": "P. falciparum CQ-sensitive (3D7 strain)", "assay": "anti-HRPII test, P. falciparum blood parasites, CQ-sensitive 3D7 strain", "format": "cell-based", "conditions": "Plasmodium falciparum", "from_the_text": "as §1, §2"}, "[4]": {"system": "P. berghei CQ-sensitive (NK65)", "assay": "Antimalarial suppressive test against P. berghei in mice", "format": "in vivo, P. berghei in Swiss mice", "conditions": "for % Reduction of parasitemia, 5th day, Exp.1 / Mean Parasitemia ± SD, 5th day, Exp.1 / % Reduction of parasitemia, 7th day, Exp.1 / Mean Parasitemia ± SD, 7th day, Exp.1 / % Reduction of parasitemia, 5th day, Exp.2 / Mean Parasitemia ± SD, 5th day, Exp.2 / % Reduction of parasitemia, 7th day, Exp.2 / Mean Parasitemia ± SD, 7th day, Exp.2: oral, 3 days; for % Reduction of parasitemia, 5th day, Exp.1 / Mean Parasitemia ± SD, 5th day, Exp.1 / % Reduction of parasitemia, 7th day, Exp.1 / Mean Parasitemia ± SD, 7th day, Exp.1: chloroquine 5 mg/kg, LQB223 100 mg/kg; for % Reduction of parasitemia, 5th day, Exp.1 / % Reduction of parasitemia, 5th day, Exp.2: day 5; for % Reduction of parasitemia, 5th day, Exp.1 / % Reduction of parasitemia, 7th day, Exp.1 / % Reduction of parasitemia, 5th day, Exp.2 / % Reduction of parasitemia, 7th day, Exp.2: versus non-treated mice; for Mean Parasitemia ± SD, 5th day, Exp.1 / Mean Parasitemia ± SD, 5th day, Exp.2: day 5 of infection; for % Reduction of parasitemia, 7th day, Exp.1 / % Reduction of parasitemia, 7th day, Exp.2: day 7; for Mean Parasitemia ± SD, 7th day, Exp.1 / Mean Parasitemia ± SD, 7th day, Exp.2: day 7 of infection; for % Reduction of parasitemia, 5th day, Exp.2 / Mean Parasitemia ± SD, 5th day, Exp.2 / % Reduction of parasitemia, 7th day, Exp.2 / Mean Parasitemia ± SD, 7th day, Exp.2: chloroquine 15 mg/kg, LQB223 50 mg/kg", "protocol": "The antimalarial suppressive test in mice, as previously described, was slightly modified. Briefly, Swiss outbred adult female mice, 20±2 g weight, were inoculated with P. berghei CQ-sensitive (NK65) by intraperitoneal route, 1×10^5 freshly infected red blood cells (iRBC) per animal. Two to 24 h later, the mice were randomly distributed to be submitted to drug treatment by oral route, during three consecutive days, once a day; two control groups were used, one non treated and another treated with CQ (either 5 or 15 mg/kg).\nThe molecule LQB223, freshly diluted with 3% DMSO in water immediately before treatment, was given by gavage, in doses of 100 and 50 mg/kg in 200 µL volume per animal. Blood smears were prepared at days fifth and seventh after parasite inoculation, methanol-fixed, stained with Giemsa, and examined microscopically for parasitemia determination. […] Molecules reducing parasitemia by 30% or more were considered active."}, "[5]": {"system": "P. falciparum CQ-resistant (W2 clone)", "conditions": "ref [9], [10]; cited from earlier work"}, "[6]": {"system": "P. falciparum CQ-sensitive (3D7 strain)", "conditions": "ref [9], [10]; cited from earlier work"}, "[7]": {"conditions": "CQ-resistant W2, anti-HRPII test, three experiments, ≤10 active, 11–20 partially active, >20 inactive, read-out: IC50 (µg/mL) Mean ± SD, W2"}, "[8]": {"conditions": "CQ-sensitive 3D7, anti-HRPII test, three experiments, ≤10 active, 11–20 partially active, >20 inactive, read-out: IC50 (µg/mL) Mean ± SD, 3D7"}, "[9]": {"conditions": "BGM monkey kidney cells, MTT, minimal lethal dose for 50% of cells"}, "[10]": {"conditions": "W2, CQ-resistant P. falciparum, single curve printed in the picture, read-out: IC50 from dose response curve (Figure 3)"}}, "note": "Read-outs that look alike come from different tables or passages of the source.", "data": [{"smiles": "O=C1C2=C(C(=O)c3ccccc31)[C@H]1Oc3ccccc3[C@H]1CO2", "note": "(relative stereo) [LQB118]", "values": [{"measurement": "toxicity to BGM cells", "setting": "[1]", "value": "toxic to BGM cells"}, {"measurement": "MDL50 (µg/mL) Mean ± SD", "setting": "[1]; green monkey", "value": "≤3.9", "unit": "µg/mL"}, {"measurement": "IC50", "setting": "[2]; [7]", "value": "0.17 ± 0.1", "unit": "µg/mL"}, {"measurement": "IC50", "setting": "[3]; [8]", "value": "0.16 ± 0.03", "unit": "µg/mL"}]}, {"smiles": "Cc1ccc(S(=O)(=O)N2c3ccccc3[C@H]3COC4=C(C(=O)c5ccccc5C4=O)[C@H]32)cc1", "note": "(relative stereo) [LQB192]", "values": [{"measurement": "toxicity to BGM cells", "setting": "[1]; BGM cells", "value": "toxic to BGM cells"}, {"measurement": "MDL50 (µg/mL) Mean ± SD", "setting": "[1]; [9]", "value": "68.7 ± 8.4", "unit": "µg/mL"}, {"measurement": "IC50", "setting": "[2]; [7]", "value": "2.9 ± 2.5", "unit": "µg/mL"}, {"measurement": "IC50", "setting": "[3]; [8]", "value": "3.8 ± 1", "unit": "µg/mL"}]}, {"smiles": "COc1ccc2c(c1)O[C@@H]1C3=C(OC[C@H]21)C(=O)c1ccccc1C3=O", "note": "(relative stereo) [LQB216]", "values": [{"measurement": "MDL50 (µg/mL) Mean ± SD", "setting": "[1]; [9]", "value": "24.2 ± 3", "unit": "µg/mL"}, {"measurement": "IC50", "setting": "[2]; [10]", "value": 0.23, "unit": "µg/mL"}, {"measurement": "IC50", "setting": "[2]; [7]", "value": "0.4 ± 0.2", "unit": "µg/mL"}, {"measurement": "IC50", "setting": "[3]; [8]", "value": "0.21 ± 0.09", "unit": "µg/mL"}]}, {"smiles": "COC(=O)c1ccc2c(c1)[C@H]1COC3=C(C(=O)c4ccccc4C3=O)[C@H]1O2", "note": "(relative stereo) [LQB221]", "values": [{"measurement": "toxicity to BGM cells", "setting": "[1]; BGM cells", "value": "toxic to BGM cells"}, {"measurement": "MDL50 (µg/mL) Mean ± SD", "setting": "[1]; [9]", "value": 5.1, "unit": "µg/mL"}, {"measurement": "IC50", "setting": "[2]; [7]", "value": "0.63 ± 0.8", "unit": "µg/mL"}, {"measurement": "IC50", "setting": "[3]; [8]", "value": "0.25 ± 0.1", "unit": "µg/mL"}]}, {"smiles": "COc1cc(C=O)cc2c1O[C@@H]1C3=C(OC[C@H]21)C(=O)c1ccccc1C3=O", "note": "(relative stereo) [LQB222]", "values": [{"measurement": "toxicity to BGM cells", "setting": "[1]; BGM cells", "value": "toxic to BGM cells"}, {"measurement": "MDL50 (µg/mL) Mean ± SD", "setting": "[1]; [9]", "value": "≤3.9", "unit": "µg/mL"}, {"measurement": "IC50", "setting": "[2]; [7]", "value": "1.8 ± 1.6", "unit": "µg/mL"}, {"measurement": "IC50", "setting": "[3]; [8]", "value": "3.5 ± 0.4", "unit": "µg/mL"}]}, {"smiles": "Cc1ccc(S(=O)(=O)N2c3ccccc3[C@H]3CCc4ccccc4[C@H]32)cc1", "note": "(relative stereo) [LQB223]", "values": [{"measurement": "MDL50 (µg/mL) Mean ± SD", "setting": "[1]; [9]", "value": "≥1000", "unit": "µg/mL"}, {"measurement": "% Reduction of parasitemia, 5th day, Exp.1", "setting": "[4]", "value": 67, "unit": "%"}, {"measurement": "Mean Parasitemia ± SD, 5th day, Exp.1", "setting": "[4]", "value": "0.15±0.2"}, {"measurement": "% Reduction of parasitemia, 7th day, Exp.1", "setting": "[4]", "value": 28, "unit": "%"}, {"measurement": "Mean Parasitemia ± SD, 7th day, Exp.1", "setting": "[4]", "value": "11±3"}, {"measurement": "% Reduction of parasitemia, 5th day, Exp.2", "setting": "[4]", "value": 30, "unit": "%"}, {"measurement": "Mean Parasitemia ± SD, 5th day, Exp.2", "setting": "[4]", "value": "1.2±0.5"}, {"measurement": "% Reduction of parasitemia, 7th day, Exp.2", "setting": "[4]", "value": 13, "unit": "%"}, {"measurement": "Mean Parasitemia ± SD, 7th day, Exp.2", "setting": "[4]", "value": "18.3±1.5"}, {"measurement": "antimalarial activity in vivo", "setting": "[4]; mice infected with P. berghei", "value": "active in vivo"}, {"measurement": "IC50", "setting": "[2]; [10]", "value": 12.4, "unit": "µg/mL"}, {"measurement": "IC50", "setting": "[2]; [7]", "value": "10.2 ± 1.2", "unit": "µg/mL"}, {"measurement": "IC50", "setting": "[3]; [8]", "value": "7.8 ± 3", "unit": "µg/mL"}]}, {"smiles": "CCN(CC)CCCC(C)Nc1ccnc2cc(Cl)ccc12", "note": "(stereo not drawn) [Chloroquine, chloroquine, reference compound]", "values": [{"measurement": "% Reduction of parasitemia, 5th day, Exp.1", "setting": "[4]", "value": 100, "unit": "%"}, {"measurement": "Mean Parasitemia ± SD, 5th day, Exp.1", "setting": "[4]", "value": 0}, {"measurement": "% Reduction of parasitemia, 7th day, Exp.1", "setting": "[4]", "value": 52, "unit": "%"}, {"measurement": "Mean Parasitemia ± SD, 7th day, Exp.1", "setting": "[4]", "value": "7.3±3"}, {"measurement": "% Reduction of parasitemia, 5th day, Exp.2", "setting": "[4]", "value": 100, "unit": "%"}, {"measurement": "Mean Parasitemia ± SD, 5th day, Exp.2", "setting": "[4]", "value": "0±0.0"}, {"measurement": "% Reduction of parasitemia, 7th day, Exp.2", "setting": "[4]", "value": 100, "unit": "%"}, {"measurement": "Mean Parasitemia ± SD, 7th day, Exp.2", "setting": "[4]", "value": "0±0.0"}, {"measurement": "IC50, W2 clone, previous work", "setting": "[5]", "value": 0.07, "unit": "µg/mL"}, {"measurement": "IC50", "setting": "[2]; W2, read-out: IC50 (µg/mL) Mean ± SD, W2", "value": 0.138, "unit": "µg/mL"}, {"measurement": "IC50", "setting": "[3]; 3D7, read-out: IC50 (µg/mL) Mean ± SD, 3D7", "value": 0.03, "unit": "µg/mL"}, {"measurement": "IC50, 3D7 strain, previous work", "setting": "[6]", "value": 0.0035, "unit": "µg/mL"}]}]}
